Data reported in US4853230A, “Pharmaceutical formulations of acid labile substances for oral use” (priority 1986, dated 1989).

Test: Rate of degradation/transformation of compounds in solution (half-life for the transformation to the active moiety) at pH 2 and 7
Assay type: physicochemical
Conditions: water solution
Experimental: Rate of degradation/transformation of compounds
Half-life (mintues) for the
transformation to the active moiety
Also at neutral pH-values the degradation reaction proceeds rapidly, e.g. at pH=7 the half-life of degradation is between 10 minutes and 65 hours while at higher pH-values the stability in solution for most compounds is much better. The stability profile is similar in solid phase. The degradation is catalyzed by acid reacting substances. The acid labile compounds are stabilized in mixtures with alkaline reacting substances.

SMILES | half-life (at pH = 2) | half-life (at pH = 7)
COc1ccnc(C[S+]([O-])c2nc3cc(C(F)(F)F)ccc3[nH]2)c1 (centres unmarked) | 1.9 min | 122 min
COc1ccnc(C[S+]([O-])c2nc3cc(C(F)(F)F)ccc3[nH]2)c1C (centres unmarked) | 2 min | 8.8 min
CCc1cnc(C[S+]([O-])c2nc3cc(OC)ccc3[nH]2)cc1Oc1ccccc1 (centres unmarked) | 3.7 min | 1620 min
COC(=O)c1cc2nc([S+]([O-])Cc3ncccc3C)[nH]c2cc1C (centres unmarked) | 11 min | 150 min
CCc1ccc2[nH]c([S+]([O-])Cc3nc4ccccc4n3C)nc2c1 (centres unmarked) | 33 min | –
Cc1cnc(C[S+]([O-])c2nc3cc(C)ccc3[nH]2)c(C)c1 (centres unmarked) | 5.4 min | 1700 min
